Legend:
[1] = target: recombinant biotinylated KRAS protein containing G12C/C51S/C80L/C118S mutations (Biotinylated KRAS G12C protein) (Homo sapiens (Human), UniProt P01116, C118S/C51S/C80L/G12C); test: SOS-catalyzed nucleotide exchange assay (TR-FRET); type: biochemical; conditions: apparent potency; preincubation time of 60 minutes prior to addition of SOS
Method: The SOS-catalyzed nucleotide exchange assay utilizes a preformed complex of recombinant biotinylated KRAS protein containing G12C/C51S/C80L/C118S mutations (183 amino acids; biotin on K10; leader sequence which is an AviTag; referred to as SEQ ID NO: 1 or “Biotinylated KRAS G12C protein” hereafter), Bodipy-GDP, and Terbium-streptavidin. Compounds are added to this complex and then after 60 minutes incubation time, the mixture is treated with recombinant SOS protein and unlabeled GTP. Small molecule inhibitors stabilize the Bodipy-GDP complex whereas the untreated protein rapidly exchanges Bodipy-GDP for unlabeled GTP resulting in reduced TR-FRET signal.
Biotinylated KRAS G12C protein (SEQ ID NO: 1) is diluted to 2 μM in an EDTA buffer (20 mM HEPES, 150 mM sodium chloride, 10 mM EDTA, and 0.01% Tween) and incubated at room temperature for one hour. This mixture is then further diluted to 90 nM in an assay buffer (20 mM HEPES, 150 mM sodium chloride, 10 mM magnesium chloride, and 0.005% Tween) containing 15 nM of Terbium-Streptavidin (Invitrogen, catalog #PV3577) and 900 nM of Bodipy-GDP and incubated at room temperature for six hours. This solution is referred to as Biotinylated KRAS G12C mixture.
Each test compound (10 mM stock in DMSO) is diluted in DMSO to make a 10-point, 3-fold dilution series in a 384-well low dead volume microplate (Labcyte, catalog #LP-0200). Once titrations are made, 10 nL of the diluted compounds is acoustically dispensed into a 384-well plate (Corning, catalog #3820) using an Echo 550 (Labcyte).
Each well of the plate receives 3 μL Biotinylated KRAS G12C mixture that had been incubating for six hours and 3 μL of assay buffer using a BioRAPTR (Beckman Coulter) and is incubated at room temperature for 60 minutes. Each well then receives 3 μL of 240 nM recombinant human SOS protein and 9 mM GTP (Sigma, G8877) in assay buffer and is incubated at room temperature for 60 minutes.
The time-resolved fluorescence resonance energy transfer signal of the plate is measured on an Envision (PerkinElmer) plate reader: Excitation filter=340 nm; emission1=495 nm; emission2=520 nm; dichroic mirror=D400/D505; delay time=100 μs. The signal of each well is determined as the ratio of the emission at 520 nm to that at 495 nm. Percent effect of each well is determined after normalization to control wells containing DMSO (no effect) or a saturating concentration of inhibitor (max effect). The apparent effect as a function of compound concentration is fit to a four parameter logistic equation.

NCI-H358 cells = test: Cellular phospho-ERK assay; type: cell-based; conditions: Homo sapiens, NCI-H358, 2 h, 2 hour incubation, ratio of p-Erk vs total Erk, read-out: IC50 (nM) pERK (Cell)
Method: NCI-H358 cells (ATCC® CRL-5807™) were cultured in T150 flask in growth medium (RPMI medium 1640-(ThermoFisher Scientific 61870) containing 10% fetal bovine serum (ThermoFisher Scientific 10091148)). The cells were harvested in growth medium after TrypLE (ThermoFisher scientific 12604021) digestion and were seeded in 384-well collagen coated cell culture plate (Corning 356702) at a density of 15,000 cells/well, and incubated at 37° C., 5% CO2 overnight. The compound dose-response titrations were prepared and appropriate amounts of compounds were dispensed in a 384-well intermediate plate using an Echo 550 liquid handler. RPMI medium 1640-GlutaMAX™-I were added to the intermediate plate and transferred to 384-well cell culture plate, which was incubated at 37° C., 5% CO2 for 2 hours. After removal of medium from the plate, cells were lysed in lysis buffer from SureFire® Ultra™ Multiplex p-Erk and total Erk assay kit (PerkinElmer MPSU-PTERK) containing Halt™ Protease and Phosphotase inhibitor cocktail (ThermoFisher Scientific 78446) at room temperature with constant shaking at 300 rpm for 30 minutes. The cell lysates were then transferred to OptiPlate-384 plate (PerkinElmer 6005620) and the phosphorylation of Erk and total Erk levels were detected by Alpha SureFire Ultra Multiplex p-Erk kit PerkinElmer MPSU-PTERK) following the manufacturer's protocol. Assay plates were read on an EnVision Multimode Plate Reader (PerkinElmer), and the ratio of p-Erk vs total Erk in each well was used as the final readout. Dose response curves were analyzed using a 4-parameter logistic model to calculate IC50 values using spotfire software.

Chain of recombinant biotinylated KRAS protein containing G12C/C51S/C80L/C118S mutations (Biotinylated KRAS G12C protein) (P01116 other isoform, or with tags, fused parts or gaps, stated change not applied): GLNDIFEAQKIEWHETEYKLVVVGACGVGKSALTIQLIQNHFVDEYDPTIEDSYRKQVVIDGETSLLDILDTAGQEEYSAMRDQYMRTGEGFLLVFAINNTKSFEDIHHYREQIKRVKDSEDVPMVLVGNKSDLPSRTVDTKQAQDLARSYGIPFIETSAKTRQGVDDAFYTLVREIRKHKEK

IC50 [1] [nM]	IC50 (NCI-H358 cells) [nM]	SMILES
2080	4200	C=CC(=O)N1CCN(c2nc(OC[C@@H]3CCCN3C)nc3c2CCC2(CCCc4ccccc42)O3)C[C@H]1C (stereo partly drawn) [Example 14a, 1-((2R)-2-methyl-4-(2′-(((S)-1-methylpyrrolidin-2-yl)methoxy)-3,4,5′,6′-tetrahydro-2H-spiro[naphthalene-1,7′-pyrano[2,3-d]pyrimidin]-4′-yl)piperazin-1-yl)prop-2-en-1-one]
5010	19200	C=CC(=O)N1CCN(c2nc(OC[C@@H]3CCCN3C)nc3c2CCC2(Cc4ccccc4C2)O3)C[C@@H]1CC#N [Example 29, 2-((S)-1-acryloyl-4-(2′-(((S)-1-methylpyrrolidin-2-yl)methoxy)-1,3,5′,6′-tetrahydrospiro[indene-2,7′-pyrano[2,3-d]pyrimidin]-4′-yl)piperazin-2-yl)acetonitrile]
68.6	1290	C=CC(=O)N1CCN(c2nc(OC[C@@H]3CCCN3C)nc3c2CCC2(O3)c3ccccc3-c3ccccc32)C[C@@H]1CC#N [Example 30, 2-((S)-1-acryloyl-4-(2′-(((S)-1-methylpyrrolidin-2-yl)methoxy)-5′,6′-dihydrospiro[fluorene-9,7′-pyrano[2,3-d]pyrimidin]-4′-yl)piperazin-2-yl)acetonitrile]
